These results are taken from patent US10865406B2, “ALS inhibitor herbicide tolerant Beta vulgaris mutants” (priority 2010, dated 2020).

For assay [1], the system named is sugar beet calli (diploid genotype 7T9044). In words: cells. In kind it is cell-based, Beta vulgaris. On the procedure:
Sugar beet cell cultures were initiated from seedlings of a diploid sugar beet genotype 7T9044 (as, for example, described by Alexander Dovzhenko, PhD Thesis, Title: “Towards plastid transformation in rapeseed (Brassica napus L.) and sugarbeet (Beta vulgaris L.)”, Ludwig-Maximilians-Universität München, Germany, 2001). Sugar beet seeds were immersed for 60 seconds in 70% ethanol, then rinsed twice in sterile water with 0.01% detergent and then incubated for 1-4 hours in 1% NaOCl bleach. Thereafter the seeds were washed 3 times with sterile H2O and the seeds were stored in sterile water overnight at 4° C. The embryos were then isolated using forceps and scalpel.
The freshly prepared embryos were immersed in 0.5% NaOCl for 30 min and then washed 3 times in sterile water. After the last washing step they were placed on hormone free MS agar medium (Murashige and Skoog (1962), Physiol. Plantarum, 15, 473-497). Those embryos which developed into sterile seedlings were used for the initiation of regenerable sugar beet cell cultures.
Cotyledons as well as hypocotyls were cut into 2-5 mm long segments and then cultivated on agar (0.8%) solidified MS medium containing either 1 mg/l Benzylaminopurine (BAP) or 0.25 mg/l Thidiazuron (TDZ). 4 weeks later the developing shoot cultures were transferred onto fresh agar medium of the same composition and then sub-cultured in monthly intervals. […]

The subject of assay [2] is SB574TL sugar beet cell colony. The experiment in a line: Growth of selected mutant cell colony (clone SB574TL) on foramsulfuron medium. In kind it is cell-based, Beta vulgaris. The note with it: 3×10^−7 M and even 3×10^−6 M foramsulfuron. From the text:
When this callus type was exposed to 10^−9 M of the sulfonylurea foramsulfuron (CAS RN 173159-57-4), the cells survived, but produced less than 50% of the biomass of their siblings on medium devoid of the inhibitor. On medium containing 3×10^−8 M foramsulfuron no growth was detectable. For large scale mutant selection experiments 10^−7 M foramsulfuron was chosen. Surviving and growing cell colonies were numbered and transferred after 4-6 weeks onto fresh medium containing 3×10^−7 M of the inhibitor. One of these cell colonies was able to grow not only at this concentration of the inhibitor but even in presence of 3×10^−6 M of foramsulfuron. From this clone (SB574TL), shoots were regenerated in presence of the ALS-inhibitor herbicide and then the shoots were transferred to MS medium containing 0.05 mg/l Naphthalene acetic acid (NAA).
When this callus type was exposed to 10^−9 M of the ALS inhibitor herbicide foramsulfuron (belonging to the sulfonylurea subclass, see above), the cells survived, but produced less than 50% of the biomass of their siblings on medium devoid of the inhibitor. On medium containing 3×10^−8 M foramsulfuron no growth was detectable. For large scale mutant selection experiments, 10^−7 M foramsulfuron was chosen. Surviving and growing cell colonies were numbered and transferred after 4-6 weeks onto fresh medium containing 3×10^−7 M of the inhibitor. […]

The test system of assay [3] is regenerated plants from SB574TL cell culture. The experiment in a line: Herbicide treatment of regenerated plants from the foramsulfuron tolerant cell culture (greenhouse). In kind it is in vivo, Beta vulgaris. The note with it: highest doses tested (range 7-70 g a.i./ha foramsulfuron, 1-10 g a.i./ha iodosulfuron-methyl-sodium, mixtures 7:1). The text has this: (§1) Within 4-12 weeks the shoots formed roots and then they were transferred into sterile plant containers filled with wet, sterilized perlite, watered with half strength MS inorganic ingredients. Alternatively the plantlets were transferred directly from the agar solidified medium in a perlite containing soil mixture in the greenhouse. During the first 10-15 days after transfer into soil containing substrate the plants were kept in an environment with high air humidity. During and after they were weaned to normal greenhouse air humidity regimes the plants were kept in the greenhouse under artificial light (12 h) at 20+−3° C./15+−2° C. day/night temperatures.
(§2) 3-5 weeks later, the regenerated plants from the above obtained foramsulfuron tolerant cell culture (SB574TL) as well as from the wild type cell cultures were treated with foramsulfuron, iodosulfuron-methyl-sodium (CAS RN […]) and a mixture of both active ingredients. The herbicide doses tested were equivalent to 7-70 g a.i./ha for foramsulfuron and 1-10 g a.i./ha for iodosulfuron-methyl-sodium.

The test system of assay [4] is wild type sugar beet plants. In words: Herbicide treatment of regenerated plants from wild type cell cultures (greenhouse). In kind it is in vivo, Beta vulgaris. The note with it: lowest doses tested (range 7-70 g a.i./ha foramsulfuron, 1-10 g a.i./ha iodosulfuron-methyl-sodium, mixtures 7:1).
Description: as §1, §2

In assay [5] the test system is Beta vulgaris wild-type and W574L-mutant (SB574TL) ALS. In words: ALS enzyme activity measurements, E. coli expressed enzyme. In kind it is biochemical. The note with it: crude protein extract, from pI50-values. The method, then:
The coding sequence of a Beta vulgaris wild-type and a mutant B. vulgaris plant is cloned into, for example, Novagen pET-32a(+) vectors and the vectors are transformed into, for example, Escherichia coli AD494 according to the instructions of the manufacturer. Bacteria are preferably grown at 37° C. in medium under selection pressure such as in LB-medium containing 100 mg/l carbenicillin and 25 mg/l kanamycin, are induced with, for example, 1 mM isopropyl-β-D-thiogalactopyranoside at an OD600 of preferably about 0.6, cultivated for about 16 hours at preferably 18° C. and harvested by centrifugation. Bacterial pellets are resuspended in 100 mM sodium phosphate buffer pH 7.0 containing 0.1 mM thiamine-pyrophosphate, 1 mM MgCl2, and 1 μM FAD at a concentration of 1 gram wet weight per 25 ml of buffer and disrupted by sonification. The crude protein extract obtained after centrifugation is used for ALS activity measurements.
ALS assays are then carried out in, for example, 96-well microtiter plates using a modification of the procedure described by Ray (1984), Plant Physiol., 75, 827-831. The reaction mixture contains preferably 20 mM potassium phosphate buffer pH 7.0, […], 0.45 mM thiamine-pyrophosphate, 0.45 mM MgCl2, 9 μM FAD, ALS enzyme and various concentrations of ALS inhibitors in a final volume of about 90 μl. […]

Assay [6] deals with ALS in leaf extracts of wild type sugar beets and SB574TL. The experiment in a line: ALS enzyme activity measurements from plant leaf extracts. In kind it is biochemical, Beta vulgaris. The text has this:
When plants are used, ALS activity is preferably determined in cell extracts or leaf extracts of wild type and B. vulgaris cell extracts or leaf extracts of the obtained mutant in the presence of various concentrations of ALS-inhibitor herbicides, preferably sulfonylurea herbicides or sulfonylamino-carbonyltriazolinone herbicides, more preferably in the presence of various concentrations of the ALS inhibitor herbicide “foramsulfuron”. ALS is thus preferably extracted from sugar beet leaves or sugar beet tissue cultures as described by Ray (1984) in Plant Physiol 75:827-831.
ALS was extracted from sugar beet leaves or sugar beet tissue cultures as described by Ray (1984), Plant Physiol 75:827-831.
ALS activity was determined in leaf extracts of wild type and sugar beets and leaf extracts of the obtained SB574TL in presence of various concentrations of foramsulfuron as described in Example 4.
In total, the mutant enzyme was at least 2000 times less sensitive against the ALS inhibitor foramsulfuron than the wild type enzyme.

As for `COc1cc(OC)nc(NC(=O)NS(=O)(=O)c2cc(NC=O)ccc2C(=O)N(C)C)n1` [foramsulfuron], in assay [1] (10^−9 M foramsulfuron in medium), the “cell survival of callus” value is reported as “survived”. In addition, in assay [1] (Beta vulgaris, read-out: biomass relative to siblings on medium devoid of the inhibitor), the viability at 0.001 µM was below 50%. In addition, the “growth of mutant cell colony” value in assay [2] is “able to grow”. Besides, the “tolerance of regenerated plants to herbicide” value in assay [3] was “tolerated even the highest herbicide doses”. Further, in assay [4], the “effect on wild type plants” value was “killed”. Besides, the “sensitivity of mutant enzyme relative to wild type enzyme (times less sensitive)” value in assay [5] and in assay [6] was “at least 2000 times” throughout.
For the compound `COC(=O)c1ccc(I)cc1S(=O)(=O)[N-]C(=O)Nc1nc(C)nc(OC)n1.[Na+]` [iodosulfuron-methyl-sodium], the “tolerance of regenerated plants to herbicide” value in assay [3] was “tolerated even the highest herbicide doses”. Moreover, the “effect on wild type plants” value in assay [4] is listed as “killed”.
